# From patent US6369089B1, “Interheteroaryl 7-oxabicyclic [2.2.1]heptane oxazoles as prostaglandin F2α antagonists” (Allergan Sales, Inc., priority 2000, dated 2002)
# Target: T1, human FP receptor (Homo sapiens, UniProt P43088)
# T1 construct: expressed in transfected cells
# Experiment: Ca2+ signaling, antagonism of 17-phenyl PGF2α response in HEK cells stably transfected with the human FP receptor
# Type: cell-based
# Description: HEK cells stably transfected with the human FP receptor were removed from the culture flasks by approximately 1 min treatment with trypsin 0.05%/0.53 mM EDTA in HBSS (Gibco, Grand Island, N.Y.) at 37° C. Proteolytic activity was arrested by adding 5 ml of 10% fetal bovine serum in DMEM. The cells were consecutively washed in Hank's BSS and medium containing 140 mM NaCl, […], 1 mM MgCl2, 1.5 mM CaCl2, 10 mM HEPES: TRIS, 5 mM glucose, 5 mM Na pyruvate, 0.1% bovine serum albumin at pH 7.4: centrifugation for the washes was performed for 15 minutes at 200 g at room temperature. Cells were counted, resuspended in the above medium and incubated with 2×10^−6 M Fura 2/acetoxymethyl ester in a shaking water bath for 30 minutes at 37° C. The cells were subsequently washed in medium as above and resuspended at a concentration of 2×10^6 cells ml^−1. Aliquots of 0.5 ml cell suspension were then added to autocap microtubes to provide 10^6 cells per experimental determination of intracellular free Ca^2+ concentration ([Ca^2+]i).
# Fluorescence was measured in a Perkin-Elmer LS-5 fluorescence spectrophotometer at excitation and emission wavelengths of 340 and 492 nm, respectively, with both slits at 10 nm. […]
# T1 sequence (P43088 whole entry): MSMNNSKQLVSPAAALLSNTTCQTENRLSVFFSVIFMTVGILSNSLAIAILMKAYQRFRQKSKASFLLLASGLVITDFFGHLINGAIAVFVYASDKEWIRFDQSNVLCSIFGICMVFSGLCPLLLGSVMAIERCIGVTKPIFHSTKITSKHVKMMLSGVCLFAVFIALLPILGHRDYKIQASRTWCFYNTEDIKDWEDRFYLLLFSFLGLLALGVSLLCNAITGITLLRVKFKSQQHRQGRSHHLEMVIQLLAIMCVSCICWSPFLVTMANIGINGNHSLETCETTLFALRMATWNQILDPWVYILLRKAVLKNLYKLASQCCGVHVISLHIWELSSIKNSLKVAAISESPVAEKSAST
compound,measurement,value
COC(=O)CCc1ccccc1CC1C2CCC(O2)C1c1nc(C(=O)NCCCCC2CCCCC2)co1 (stereo not shown),PGF2α antagonist activity (comparison in words),much less active than the corresponding acid
